Data on 5 compounds can be found in patent US8835171B2, “Materials and methods related to sodium/potassium adenosine triphosphase and cholesterol” (The University of Toledo, priority 2010, dated 2014).

For assay [1], the system named is Na/K-ATPase α1. The experiment in a line: Immunostaining / confocal imaging of Na/K-ATPase α1 distribution in LLC-PK1 cells. Format: cell-based, pig.
The test system of assay [2] is LLC-PK1 cells. As to conditions: 10 mM Mβ-CD 30-60 minutes at 37°, previous work from the inventors' lab; cited from earlier work.
The test system of assay [3] is insulin receptor β subunit. Briefly: Western blot of insulin receptor in LLC-PK1 cells. Type of assay: cell-based, pig. Here is the method:
(§1) Protein concentrations of cell lysates or tissue homogenates were measured by Protein Assay Kit from Bio-Rad (Hercules, Calif.). Equal amounts of protein were loaded onto the gel and separated on 10% SDS-PAGE, transferred to an Optitran membrane, and probed with corresponding antibodies. Protein signals were detected with an ECL kit. The density of the Western bands was quantified by the free software Image J.

Assay [4] concerns Na/K-ATPase α1. The experiment in a line: Western blot of Na/K-ATPase α1 level in LLC-PK1 cells. Format: cell-based, pig. Here is the method: as §1, with “LLC-PK1 cells were grown in 6 cm culture dish to 100% confluence and serum starved for 24 hours. Cells were then treated by 10 mM Mβ-CD for 1 hour. […] Cell lysates were subject to protein assay and Western blot analysis. Protein concentrations” for “Protein concentrations”
On the technique in general: Immunoblotting shows a protein as a band on a membrane.

Assay [5] concerns the target T1, purified pig kidney Na/K-ATPase (PKE) (Sus scrofa, UniProt P05024).
T1 construct: Purified Na/K-ATPase membrane samples (PKE) were prepared from pig kidney medulla; from tissue; host or cells: pig kidney outer medulla
Briefly: NBD-cholesterol binding assay with purified pig kidney enzyme (PKE). From the text: As the purified membrane fragments contained large amount of cholesterol, which may already saturated binding sites on the Na/K-ATPase, most of the cholesterol content was extracted by Mβ-CD (FIG. 5B). To study the binding between the Na/K-ATPase and cholesterol, a cholesterol analogue, 25-[N-[(7-nitro-2-1,3-benzoxadiazol-4-yl)methyl]amino]-27-norcholesterol (NBD cholesterol), was used for the binding assay. NBD-cholesterol was used for the study of protein-cholesterol interaction before. Unlike cholesterol, NBD-cholesterol is able to emit fluorescence signals that peak at ˜530 nm when excited at 473 nm because of the replacement of the methyl group at C25 position with an NBD group (FIG. 5C). In the aqueous solution, its fluorescence is largely quenched. However, when it binds to a protein and is exposed to a hydrophobic environment, the fluorescence signals will increase. Moreover, it has much higher critical micelle concentration (˜650 nM) than that of the cholesterol (30 nM) so that higher concentrations of the NBD-cholesterol can be used during the binding assay. […] The Kd value is 100 nM-200 nM.
To further confirm that the results represented lipid-protein interaction instead of lipid-lipid interaction, the inventors measured fluorescence resonance energy transfer (FRET) signals. […]

The test system of assay [6] is LLC-PK1 cells. Briefly: Cholesterol assay of LLC-PK1 cell lysates. As to conditions: U18666A-treated cells. Format: cell-based, pig. Here is the method: LLC-PK1 cells were grown in 6 cm culture dish to 100% confluence and serum starved for 24 hours. […] […] Cell lysates were subject to protein assay and Western blot analysis. Cholesterol assay and filipin staining were performed as described in Chen et al., Regulation of intracellular cholesterol distribution by Na/K-ATPase. Journal Biological Chemistry, Volume 284, pages 14881-14890 (2009).

The test system of assay [7] is Na/K-ATPase α1 mRNA. Briefly: Quantitative RT-PCR of α1 mRNA. Format: cell-based, pig. As to conditions: LLC-PK1 cells, 10 μg/ml U18666A 24 h. Here is the method: The quantitative RT-PCR on mRNA levels of Na/K-ATPase α1 and GAPDH were performed as described in Tian et al., Changes in sodium pump expression dictate the effects of ouabain on cell growth, Journal of Biological Chemistry, 14921-1429 (2009).

The subject of assay [8] is LLC-PK1 cells. Briefly: Filipin staining of cholesterol distribution in LLC-PK1 cells. Format: cell-based, pig. As to conditions: U18666A 24 h. The procedure:
Cholesterol assay and filipin staining were performed as described in Chen et al., Regulation of intracellular cholesterol distribution by Na/K-ATPase. Journal Biological Chemistry, Volume 284, pages 14881-14890 (2009).

Assay [9] concerns caveolin-1. Briefly: Western blot of caveolin-1 in LLC-PK1 cells. As to conditions: U18666A 48 h. Type of assay: cell-based, pig. Here is the method:
as §1

In assay [10] the test system is wild-type rat α1. Briefly: α1 and filipin staining in wild-type rat α1-rescued cells (AAC-19). Format: cell-based. To be noted: AAC-19 cells, different doses of U18666A 24 h. The procedure:
Thus, it was of interest to explore whether the CRAC plays a role in cholesterol depletion-induced α1 endocytosis. Firstly, the inventors treated wild-type rat α1 rescued-cells, AAC-19, with U18666A and stained both α1 and cholesterol. […] Staining of the Na/K-ATPase α1 was performed as previously described. Briefly, cells were serum-starved for 24 hours and treated on coverslips. The cells were then fixed with ice-cold methanol for 30 min and blocked with Signal Enhancer from Invitrogen. Next, cells were incubated with a monoclonal anti-Na/K-ATPase α1 antibody at 4° C. overnight. After three washes with PBS, a secondary Alex 488-conjugated anti-mouse antibody was added and incubated at room temperature for 3 hours. The coverslip was washed, mounted and imaged with a Leica confocal microscope.

Assay [11] concerns Y55S mutant rat α1. The experiment in a line: α1 and filipin staining in Y55S mutant rat α1-rescued cells (PY-17-Y55S). Type of assay: cell-based. As to conditions: PY-17-Y55S cells, different doses of U18666A 24 h. From the text: Next, the inventors mutated the essential Tyr55 in the rat α1 CRAC (corresponds to the Tyr53 in pig α1) to Ser55 by a site-directed mutagenesis method and generated the stable mutant rat α1-rescued cell line (PY-17-Y55S). Once the cell line was established, the inventors did the same experiment as on AAC-19 cells. […] To confirm the findings, the inventors had the CRAC synthesized with a positively charged leader peptide, HIV-TAT, tagged to the N-terminus of CRAC so that the TAT-CRAC peptide was cell permeable. Theoretically, loading of the TAT-CRAC peptide into the cells may interrupt the binding between endogenous α1 and cholesterol by competitive inhibition. […] Taken together, the cholesterol-regulated Na/K-ATPase α1 membrane trafficking is dependent on the cholesterol-α1 interaction.
The rat α1 CRAC mutant (Tyr55 to Ser55) was created by PCR-based site-directed mutagenesis on the pRc/CMV-a1AACm1 plasmid as generated previously. The Y55S mutant rat α1 knock-in cell line was then established using the same protocol described before. The pEYFP-α1 plasmid was generated as described previously. RFP-rab7 plasmid was requested from www.addgene.org. The preparation of plasmid constructs expressing GST fusion proteins were made from pGEX-4T-1 as previously described. GST-NT (Ala1-Ser160) and GST-NT-Y55S expression vectors were constructed based on sequence of pig kidney Na/K-ATPase α1 subunit. […]

Assay [12] relates to cell surface Na/K-ATPase. Briefly: 3H-ouabain binding assay of cell surface Na/K-ATPase. Format: cell-based, pig. To be noted: LLC-PK1 cells, U18666A. Here is the method: [3H]Ouabain Binding was conducted as described in Tian et al., Changes in sodium pump expression dictate the effects of ouabain on cell growth, Journal of Biological Chemistry, 14921-1429 (2009).

`C[C@@H]1C[C@@H]([C@H](O)CC2CC(=O)NC(=O)C2)C(=O)[C@@H](C)C1` [cycloheximide]: in [1] (cycloheximide 10 μg/ml 1 h before U18666A 24 h), the “effect on U18666A-induced α1 redistribution to the intracellular compartments” value is recorded as “did not prevent”.

As for methyl β-cyclodextrin [Mβ-CD], the “plasma membrane cholesterol pool” value in assay [2] is reported as “significantly lowered”. In assay [3] (during cholesterol depletion by Mβ-CD and repletion), the “expression of insulin receptor” value is on record as “unchanged”. The α1 immunostaining signals entry in [1] (Mβ-CD treated LLC-PK1 cells) was “lower α1 signals from the plasma membrane”. In addition, the “decrease in α1 level” value in assay [4] (10 mM Mβ-CD 1 h, 0 h recovery) is recorded as around 40%.

With `CC(CCC[C@@H](C)[C@@H]1CC[C@H]2[C@@H]3CC=C4C[C@@H](O)CC[C@]4(C)[C@H]3CC[C@@]21C)N(C)c1ccc([N+](=O)[O-])c2nonc12` (stereo partly shown) [NBD-cholesterol, 25-[N-[(7-nitro-2-1,3-benzoxadiazol-4-yl)methyl]amino]-27-norcholesterol], the “FRET signals at 530 nm on incubation with PKE” value in assay [5] (Trp excited at 295 nm) is “dose-dependent saturation curve”.

`CCN(CC)CCO[C@H]1CC[C@@]2(C)C(=CC[C@@H]3[C@@H]2CC[C@]2(C)C(=O)CC[C@@H]32)C1` [U18666A]: in assay [6], the total cellular cholesterol entry is “no significant difference”. Further, in [7], the “α1 mRNA level” value was “no difference compared to control”. For the same compound, the insulin receptor content result in assay [3] (LLC-PK1 cells after U18666A treatment) is on record as “remained undisturbed”. In addition, the “intracellular α1 accumulation, colocalization with RFP-Rab7” value in assay [1] (LLC-PK1 cells transfected with RFP-rab7, 5 μg/ml U18666A 24 h) is “massive intracellular α1 accumulation, most of which clearly colocalized with the Rab7 signals”. Also, the “colocalization of internalized YFP-α1 with free cholesterol” value in assay [1] (LLC-PK1 cells transfected with YFP-α1, 5 μg/ml U18666A 24 h) was “most of the internalized α1 colocalized with free cholesterol”. Also, the “α1 signals, cellular distribution” value in assay [1] (LLC-PK1 cells, U18666A 24 h) is “reduced in the plasma membrane but increased in the intracellular compartments”. Moreover, the “distribution of free cholesterol” value in assay [8] was “redistribution of free cholesterol from the plasma membrane to intracellular compartments”. For the same compound, the caveolin-1 protein level entry in assay [9] was “downregulated”. The “endocytosis of α1” value is on record as “endocytosis of α1 in a dose-dependent manner” in [10] and “no obvious endocytosis” in assay [11]. Also, the “downregulation of α1 expression” value in assay [4] (U18666A 24 h and 48 h) is “both dose and time-dependent”. In [12], the “cell surface α1 by 3H-ouabain binding” value is listed as “downregulation of cell surface α1”.

With `CC(C)CCC[C@@H](C)[C@H]1CC[C@H]2[C@@H]3CC=C4C[C@@H](O)CC[C@]4(C)[C@H]3CC[C@]12C` [cholesterol], in assay [5] (100 nM PKE, 30 nM NBD-cholesterol, FRET), the “competition of binding between NBD-cholesterol and purified PKE” value is listed as “competed the binding”.
